Test results taken from US5804553A, “Prophenins - antibiotic peptides” (University of California, priority 1994, dated 1998).
Where no end group is shown, it is not given here.

How the values were obtained:
C. albicans, strain 820 = assay: radial diffusion assay in agarose gels; format: cell-based; conditions: for inhibitory activity (FIG. 4c): at reasonable concentrations; for minimal microbicidal concentration: Table 2
Description: (§1) Aliquots (66 μl) of each fraction were dried by vacuum centrifugation, and resuspended in approximately 6.6 μl of 0.01% acetic acid. Five μl samples of this concentrate were tested for antimicrobial activity against E. coli ML-35, L. monocytogenes, Strain EGD and C. albicans, strain 820 by radial diffusion and gel overlay techniques (Lehrer, R. I. et al. J Immunol Meth (1991) 137:167-173). Active fractions were further examined by acid-urea PAGE and SDS-PAGE. Prophenins emerged from the P10 column in fractions 38-43 (39.6 ml total volume), which contained a total of 18 mg protein by BCA analysis.
(§2) The radial diffusion assay in agarose gels as described above was also used to test the activity of the purified prophenins. Samples of 5 μL each were added to 3 mm wells in thin gels composed of 10 mM sodium phosphate, 30 mg/ml trypticase soy broth powder in 1% agarose and containing approximately 4×10^5 CFU/ml of mid-log phase organisms. After allowing 3 hours for the samples to diffuse into the underlayer gel, a nutrient-rich overlay gel was poured and the plates were incubated for 24 hours at 37° C. to allow surviving organisms to form microcolonies. The diameters of the clear zones were measured and expressed in "units" (10 units=1 mm) as. described previously.

E. coli ML-35 = assay: radial diffusion assay in agarose gels; format: cell-based; conditions: for minimal microbicidal concentration: E. coli, Table 2; for inhibitory activity (FIG. 4a): E. coli ML-35
Description: as §1, §2

[1] = tested on: L. monocytogenes, Strain EGD; assay: radial diffusion assay in agarose gels; format: cell-based; conditions: for minimal microbicidal concentration: Table 2
Description: as §1, §2

[2] = tested on: lipid polysaccharide (LPS) of the Gram-negative bacterium E. coli strain 0.55B5; assay: Limulus amebocyte lysate (LAL) test for endotoxin binding; format: biochemical; design: key to LAL gel formation: ++ signifies a solid gel (no inhibition); + indicates increased viscosity without solid gel formation (partial inhibition); 0 indicates that gelation was absent (complete inhibition); conditions: for concentration giving complete inhibition of LAL gelation / LAL gel formation: LPS 0.05 endotoxin unit/ml; for LAL gel formation: Table 3; for concentration giving complete inhibition of LAL gelation, molar: converted from μg/ml
Description: The prophenins of the invention were tested for their ability to bind the lipid polysaccharide (LPS) of the Gram-negative bacterium E. coli strain 0.55B5. The assay was the Limulus amebocyte lysate (LAL) test for endotoxins conducted in the presence and absence of the test compounds. The test was conducted using the procedure described in Sigma Technical Bulletin No. 210 as revised in December 1992 and published by Sigma Chemical Company, St. Louis, Mo.
The LAL test is based on the ability of LPS to effect gelation in the commercial reagent E-TOXATE ™ which is prepared from the lysate of circulating amebocytes of the Horseshoe Crab Limulus polyphemus. As described in the technical bulletin, when exposed to minute quantities of LPS, the lysate increases in opacity as well as viscosity and may gel or clot depending on the concentration of endotoxin. The technical bulletin goes on to speculate that the mechanism appears analogous to the clotting of mammalian blood and involves the steps of activation of a trypsin-like preclotting enzymes by the LPS in the presence of calcium ion, followed by enzymic modifications of a "coagulogen" by proteolysis to produce a clottable protein. These steps are believed tied to the biologically active or "pyrogenic" portion of the molecule. It has been shown previously that detoxified LPS (or endotoxin) gives a negative LAL test.
Polymyxin B is a cyclic 1.2 kD acylated […] obtained from Bacillus polymyxa. Polymyxin B was used as a positive control since it is known to inhibit LPS-induced Limulus hemocyte lysate clotting.
In the assay, the amounts of prophenin-1 and polymyxin B (78% free polymyxin, Sigma) were preincubated in a final volume of 0.2 ml and the test mixtures contained LPS at a final concentration of 0.05 endotoxin unit/ml and E-TOXATE™ at the same concentration. The test compounds were incubated together with the LPS for 15 minutes before the E-TOXATE™ was added to a final volume (after E-TOXATE™ addition) of 0.2 ml. The tubes were then incubated for 60 minutes at 37° C. and examined for the formation of a gel.

| Molecule | inhibitory activity (FIG. 4c) (C. albicans, strain 820) | minimal microbicidal concentration (C. albicans, strain 820) [µg/mL] | minimal microbicidal concentration (E. coli ML-35) [µg/mL] | minimal microbicidal concentration [1] [µg/mL] | inhibitory activity (FIG. 4a) (E. coli ML-35) | concentration giving complete inhibition of LAL gelation [2] [µg/mL] | LAL gel formation ([2]; peptide 0.16 μg/ml) | LAL gel formation ([2]; peptide 0.31 μg/ml) | LAL gel formation ([2]; peptide 0.63 μg/ml) | LAL gel formation ([2]; peptide 1.25 μg/ml) | LAL gel formation ([2]; peptide 2.5 μg/ml) | LAL gel formation ([2]; peptide 5.0 μg/ml) | LAL gel formation ([2]; peptide 10.0 μg/ml) | concentration giving complete inhibition of LAL gelation, molar [2] | specificity for Gram-negative bacteria (E. coli ML-35; from Table 2, E. coli versus L. monocytogenes and C. albicans) | concentrations at which some activity was shown (FIG. 4b) [1] | inhibitory activity (FIG. 4b) ([1]; versus the other three antibiotic peptides) | effective concentration in inhibiting LPS ([2]; intact molecule) [nM] |
| --- | --- | --- | --- | --- | --- | --- | --- | --- | --- | --- | --- | --- | --- | --- | --- | --- | --- | --- |
| HNP-1: human defensin (HNP-1), used as control | substantially noninhibitory |  |  |  |  |  |  |  |  |  |  |  |  |  |  |  |  |  |
| HNP-2: control peptide as headed in Table 2; the text names human defensin HNP-1 (CYCRIPACIAGERRYGTCIYQGRLWAFCC; ends and bridges not checked; cysteine pairing not given here; UniProt P59665 66-94, looked up) |  | > 150 | 80.0 | 12.0 |  |  |  |  |  |  |  |  |  |  |  |  |  |  |
| PG-3: protegrin-3 (PG3), used as control (RGGGLCYCRRRFCVCVGR; ends and bridges not checked; cysteine pairing not given here; UniProt P32196 131-148, looked up) | successful antifungals | 6.9 | 8.6 | 9.0 | more inhibitory than HNP-1 |  |  |  |  |  |  |  |  |  |  |  |  |  |
| Polymyxin B |  |  |  |  |  | 5 | ++ | ++ | ++ | ++ | + | 0 | 0 | ≈ 4.2 μM |  |  |  |  |
| Prophenin-1: 79-residue proline-rich antimicrobial peptide purified from porcine leukocytes; sequence SEQ ID NO:1 (b87-b94, FIG. 3) (peptide) AFPPPNVPGPRFPPPNFPGPRFPPPNFPGPRFPPPNFPGPRFPPPNFPGPPFPPPIFPGPWFPPPPPFRPPPFGPPRFP | substantially noninhibitory | > 150 | 15.2 | 122.2 | comparable in inhibitory activity to PG3 and NP1 | 0.625 | ++ | ++ | 0 | 0 | 0 | 0 |  | ≈ 72 nM | highly specific for Gram-negative bacteria | above 100 μg/ml | substantially less inhibitory | 35 to 70 |
